Data as given in patent US20200093764A1, “TREATMENT OF ASTHMA WITH CYSTEAMINE” (CHILDREN'S HOSPITAL MEDICAL CENTER, priority 2017, published 2020).

How the values were obtained:
Assay type in all cases: in vivo
WT BALB/c mice [1] = test: Cysteamine vs. corticosteroid (dexamethasone) in HDM-induced asthma (Example 5)
Method: WT BALB/c mice underwent 6 intratracheal challenges to an allergen (e.g., HDM (25 μg)) to induce asthma development. Control mice underwent 6 intratracheal challenges to saline instead. When asthma was established, a subset of mice received cysteamine (50 mg/kg) treatment for seven days (on challenge days, mice received treatment 30 minutes prior to challenge). A subset of mice received corticosteroid (e.g., dexamethasone) treatment (3 mg/kg) during the last four days.
To determine the effectiveness of the treatment, airway responsiveness was measured as follows. 24 hours after the last challenge, invasive measurements were made with the FlexiVent apparatus (SCIREQ). Dynamic resistance was assessed after exposure to increasing concentrations of aerosolized methacholine (0, 12.5, and 50 mg/kg).
To observe Th2/Th17 cytokine production, lung cells were ex vivo stimulated with phorbol 12-myristate 13-acetate (PMA)+ionomycin (0.05 μg/mL and […], respectively) for an hour prior to the addition of Brefeldin-A for an additional two and a half hours. Cells were stained with combinations of CD4-FITC, γδT-cell receptor-PE/Cy7, CD3-AF700, CD44-Pacific Blue, and Live/dead-BV510. After fixation and premeabilization cells were intracellularly stained with IL-13-PE, IL-17A-AF647, IFN-γ-PerCP5.5. Image and data acquisition was done on a FACSCanto III and analyzed with FlowJo software.

[2] = test system: WT BALB/c and VNN1 KO mice; test: Prophylactic cysteamine treatment in HDM-challenged experimental asthma model (Example 1); conditions: for asthma development: cysteamine hydrochloride 50 mg/kg i.p. every day, HDM 25 μg i.t. 3 times a week for 3 weeks; for airway hyper-responsiveness (AHR) development: mice, oral or IP administration, methacholine challenge, FlexiVent dynamic resistance
Text: Steroid non-responsive mice (e.g., vanin 1 (VNN1) knock-out (KO) mice) and normal mice (e.g., wild type (WT) BALB/c mice) were used in an experimental asthma model. Since VNN1 KO mice lack tissue cysteamine, these mice were used to determine whether replacement of cysteamine would be sufficient to restore responsiveness to a steroid treatment.
WT BALB/c and VNN1 KO mice were started on cysteamine replacement treatment (e.g., as illustrated in FIG. 1A) one day prior to the start of intratracheal (i.t.) challenges. Mice then received one intraperitoneal (i.p.) injection of cysteamine hydrochloride (50 mg/kg) or saline every day. Mice were challenged 3 times a week for 3 weeks to an allergen (e.g., house dust mite (HDM, 25 μg in 50 μl saline)) or saline. A subset of mice from each group received a corticosteroid (e.g., dexamethasone (3 mg/kg)) treatment during the last 4 days of the experiment.
To determine the effectiveness of the treatment, airway responsiveness was measured as follows. 24 hours after the last challenge, invasive measurements were made with the FlexiVent apparatus (SCIREQ). Mice were anesthetized with ketamine, xylazine, and acepromazine (100, 20, and 10 mg/mL, respectively, mixed at a ratio of 4:1:1). Mouse tracheas were cannulated with a 19-gauge blunt needle, and the mice were ventilated at 150 breaths/min and 3.0 cm H2O positive end-expiratory pressure. Two total lung capacity perturbations were then performed for airway recruitment before baseline measurement, and subsequent methacholine challenges were performed. Dynamic resistance was assessed after exposure to increasing concentrations of aerosolized methacholine (0, 12.5 and 25 mg/mL). The average of the 3 highest dynamic resistance values with a coefficient of determination of 0.9 or greater (as determined by using FlexiVent software) was used to determine the dose-response curve.

WT BALB/c mice [3] = test: Oral cysteamine treatment in HDM-induced asthma with recall challenge (Example 6)
Method: Control mice underwent 9 intratracheal challenges to saline instead. Once asthma was established, a subset of mice received cysteamine (6.25 or 12.5 mg/kg) or saline vehicle oral treatment 4 times a day for 2 weeks. On the 14th day, all mice received a single HDM recall challenge. Mice received scheduled oral treatment prior to airway responsiveness measurement. To determine the effectiveness of the treatment, airway responsiveness was measured as follows. 24 hours after the last challenge invasive measurements were made with the FlexiVent apparatus (SCIREQ). Dynamic resistance was assessed after exposure to increasing concentrations of aerosolized methacholine (0, 6.25, 12.5, 25, and 50 mg/kg). Bronchoalveolar lavage was performed by means of tracheal cannulation. Lungs were lavaged with 1 mL of 1×HBSS. The collected BALF was centrifuged, and total cell numbers counted with a hemocytometer. Lungs were removed, and the upper right lobe was minced and incubated at 37° C. for 30 minutes in 1 mL of RPMI 1640 containing Liberase TL (0.5 mg/mL) and DNAse I (0.5 mg/mL). Lung cells were passed through a 70-μm cell strainer with a syringe rubber, and the strainer was washed with 5 mL of RPMI plus DNAse I media. Cells were centrifuged and re-suspended in 1 mL of PBS plus 0.5% BSA plus 2 mmol/L EDTA before being counted on a hemocytometer.

WT BALB/c mice [4] = test: Lower doses of cysteamine (Cystagon) to block allergen-induced asthma exacerbation (Example 3)
Method: Control mice underwent 9 intratracheal challenges to saline instead. Once asthma was established, a subset of mice received cysteamine (e.g., Cystagon®, which corresponds to cysteamine bitartrate) at various doses (6.25, 12.5, 25, or 50 mg/kg) or saline vehicle intraperitoneal (i.p.) treatment 3 times every day for 2 weeks. On the 14th day, all mice received a single HDM recall challenge. Mice received scheduled i.p. treatment prior to airway responsiveness measurement.
To determine the effectiveness of the treatment, airway responsiveness was measured as follows. 24 hours after the last challenge invasive measurements were made with the FlexiVent apparatus (SCIREQ). Dynamic resistance was assessed after exposure to increasing concentrations of aerosolized methacholine (0, 6.25, 12.5, 25, and 50 mg/kg).
To observe Th2/Th17 cytokine production, lung cells were ex vivo stimulated with phorbol 12-myristate 13-acetate (PMA)+ionomycin (0.05 μg/mL and 0.50 μg/mL, respectively) for an hour prior to the addition of Brefeldin-A for an additional 2.5 hours. Cells were stained with combinations of CD4-FITC, γδT-cell receptor-PE/Cy7, CD3-AF700, CD44-Pacific Blue, and Live/dead-BV510. After fixation and premeabilization cells were intracellularly stained with IL-13-PE, IL-17A-AF647, IFN-γ-PerCP5.5. Image and data acquisition was done on a FACSCanto III and analyzed with FlowJo software.

WT BALB/c mice [5] = test: Cysteamine therapeutic treatment after HDM-induced asthma is established (Example 2); conditions: cysteamine 50 mg/kg for seven days
Method: WT BALB/c mice underwent 6 intratracheal challenges to an allergen (e.g., HDM (25 μg)) to induce asthma development. Control mice underwent 6 intratracheal challenges to saline instead. The next day a subset of mice received cysteamine (50 mg/kg) treatment for seven days (on challenge days, mice received treatment 30 minutes prior to challenge). See FIG. 2A for the treatment and challenge protocol. The mice were sacrificed 24 hours after the last challenge.
To determine the effectiveness of the treatment, airway responsiveness was measured as follows. 24 hours after the last challenge, invasive measurements were made with the FlexiVent apparatus (SCIREQ). Dynamic resistance was assessed after exposure to increasing concentrations of aerosolized methacholine ([…]).
Bronchoalveolar lavage was performed by means of tracheal cannulation. Lungs were lavaged with 1 mL of 1×HBSS. The collected BALF was centrifuged, and total cell numbers were counted with a hemocytometer. Cells were spun onto slides and stained with the HEMA3 stain set. After the slides were cover slipped and de-identified, 200 cells were counted, and the total number of each cell type was calculated.
To observe Th2, Th17, and Th1 cytokine production, lung cells were ex vivo stimulated with phorbol 12-myristate 13-acetate (PMA)+ionomycin (0.05 μg/mL and […], respectively) for an hour prior to the addition of Brefeldin-A for an additional 2.5 hours. Cells were stained with combinations of CD4-FITC, γδT-cell receptor-PE/Cy7, CD3-AF700, CD44-Pacific Blue, and Live/dead-BV510. After fixation and permeabilization cells were intracellularly stained with IL-13-PE, IL-17A-AF647, IFN-γ-PerCP5.5. Image an data acquisition was done on a FACSCanto III and analyzed with FlowJo software.

[6] = Drug kinetics of cysteamine in mouse serum (Example 4)
Text: FIG. 4A is a table showing drug kinetics in mouse serum after administration of cysteamine. FIG. 4B is a chart showing the cysteamine concentrations in μmol/L over the time after the ends of cysteamine infusion in minutes.

[7] = mice with asthma, Cystagon i.p. for 2 weeks

## NCCS [Cysteamine, 2-aminoethanethiol]
WT BALB/c mice [1]; WT mice with asthma (6 i.t. HDM), cysteamine 50 mg/kg for seven days
  AHR: decreased AHR
WT BALB/c mice [1]; WT mice, cysteamine 50 mg/kg for seven days
  presence of Th1, Th2, and Th17 cells in the lungs: significantly decreased the presence of Th1, Th2, and Th17 cells
WT BALB/c mice [1]; cysteamine 50 mg/kg seven days vs dexamethasone 3 mg/kg last four days
  difference between the cysteamine and dexamethasone treatment groups: no significant differences
[2]; VNN1 KO mice
  asthma development: significantly prevented asthma
[2]
  airway hyper-responsiveness (AHR) development: blocked airway hyper-responsiveness (AHR) development
[2]; normal (WT BALB/c) mice
  asthma development: significantly prevented asthma
WT BALB/c mice [3]; WT mice with asthma (9 i.t. HDM), cysteamine 6.25 or 12.5 mg/kg oral 4 times a day for 2 weeks, HDM recall challenge
  AHR: decreased AHR
WT BALB/c mice [3]; WT mice with asthma, cysteamine 6.25 or 12.5 mg/kg oral 4 times a day for 2 weeks
  airway inflammation (BALF counts, lung cells): decreased
WT BALB/c mice [3]; oral cysteamine 6.25 or 12.5 mg/kg 4 times a day for 2 weeks
  oral treatment compared with IP injection: equivalent to IP injection
WT BALB/c mice [4]; 6.25 mg/kg dose, Cystagon i.p. for 2 weeks, HDM recall challenge
  reducing AHR: effective at reducing AHR
WT BALB/c mice [4]; Cystagon i.p. for 2 weeks, doses tested 6.25, 12.5, 25, 50 mg/kg
  dose at which maximal effectiveness on AHR was achieved: 12.5 mg/kg/day
WT BALB/c mice [4]; cysteamine at 6.25, 12.5, and 50 mg/kg, i.p. for 2 weeks
  presence of eosinophils and neutrophils in the bronchoalveolar lavage fluid: significantly decreased the presence of eosinophils and neutrophils
WT BALB/c mice [4]; mice with asthma (9 i.t. HDM), Cystagon (cysteamine bitartrate) 6.25-50 mg/kg i.p. 3 times every day for 2 weeks, HDM recall challenge
  blocking AHR: effective at blocking AHR
WT BALB/c mice [4]; [7]
  airway inflammation: reduced airway inflammation
  presence of pathogenic T effector populations (Th2/Th17) in the lungs: significantly decreased the presence of pathogenic T effector populations (Th2/Th17)
WT BALB/c mice [5]; mice with asthma (6 i.t. HDM challenges)
  asthma occurrence: significantly decrease asthma occurrence
WT BALB/c mice [5]; mice with asthma
  airway inflammation: reduced airway inflammation
  presence of eosinophils and neutrophils in the bronchoalveolar lavage fluid: decreased the presence of eosinophils and neutrophils
WT BALB/c mice [5]; mice with asthma, flow cytometry after PMA+ionomycin
  presence of pathogenic T effector populations (Th2/Th17) in the lungs: reduction in the presence of pathogenic T effector populations (Th2/Th17)
WT BALB/c mice [5]; mice with asthma, methacholine challenge
  airway hyper-responsiveness (AHR) development: blocked airway hyper-responsiveness (AHR) development
[6]; mouse serum, after end of cysteamine infusion
  cysteamine concentration in mouse serum in the time after infusion ended: rapidly degraded
[6]; stated in Example 3 results as reason for q.i.d. dosing
  half-life: short half-life

## NCCSSCCN [cystamine]
[2]
  airway hyper-responsiveness (AHR) development: blocked airway hyper-responsiveness (AHR) development
